According to US6489137B2, “Detection of loss of the wild-type huBUB1 gene” (Chiron Corporation, priority 1997, dated 2002):

Target: T1, huBUB1 kinase (Homo sapiens, UniProt O43683)
T1 construct: Plasmid p385-1, encoding full-length huBUB1 in the vector pCR3.1 (Invitrogen), was employed as a backbone for further constructs; made in house; host or cells: cell-free coupled in vitro transcription/translation (T7 TnT kit, Promega) from pCR3.1 plasmids, anti-FLAG immunopurified
Experiment: in vitro huBUB1 kinase (autophosphorylation) assay
Assay type: biochemical
Settings: for relative huBUB1 autophosphorylation: immunopurified FLAG-BUB3/BUB1, labeled-ATP kinase reaction, SDS-PAGE, phosphorimager; for inhibition of huBUB1 kinase (result in words): tested at 5, 10 and 20 μM
From the text: A set of known compounds was screened using an in vitro huBUB1 kinase assay. Tested compounds included olomucine, myrecetin, hypericin, iodotubercidin, ellagic acid, emodin, and staurosporine. The relative specificity of these compounds towards known kinases has been reported in the literature. Some of these compounds can be classified as relatively specific kinase inhibitors (e.g., olomucine, myrecetin, ellagic acid), while other inhibitors are known to inhibit a broad range of kinase (e.g., hypericin, iodotubercidin, staurosporine).
Unlabeled FLAG-BUB3/BUB1 in vitro translation products were immunopurified with anti-FLAG. […] kinase reactions were performed in the presence and absence of inhibitors in 20 μl reaction volumes. Labeled reaction products were separated on SDS-PAGE gels, and relative huBUB1 autophosphorylation was determined with the aid of a phosphorimager. An initial screen was conducted using 10 and 20 μM of each compound. Compounds with a positive result in this screen were then retested at 5, 10 and 20 μM (Table 1).

T1 sequence (O43683 whole entry): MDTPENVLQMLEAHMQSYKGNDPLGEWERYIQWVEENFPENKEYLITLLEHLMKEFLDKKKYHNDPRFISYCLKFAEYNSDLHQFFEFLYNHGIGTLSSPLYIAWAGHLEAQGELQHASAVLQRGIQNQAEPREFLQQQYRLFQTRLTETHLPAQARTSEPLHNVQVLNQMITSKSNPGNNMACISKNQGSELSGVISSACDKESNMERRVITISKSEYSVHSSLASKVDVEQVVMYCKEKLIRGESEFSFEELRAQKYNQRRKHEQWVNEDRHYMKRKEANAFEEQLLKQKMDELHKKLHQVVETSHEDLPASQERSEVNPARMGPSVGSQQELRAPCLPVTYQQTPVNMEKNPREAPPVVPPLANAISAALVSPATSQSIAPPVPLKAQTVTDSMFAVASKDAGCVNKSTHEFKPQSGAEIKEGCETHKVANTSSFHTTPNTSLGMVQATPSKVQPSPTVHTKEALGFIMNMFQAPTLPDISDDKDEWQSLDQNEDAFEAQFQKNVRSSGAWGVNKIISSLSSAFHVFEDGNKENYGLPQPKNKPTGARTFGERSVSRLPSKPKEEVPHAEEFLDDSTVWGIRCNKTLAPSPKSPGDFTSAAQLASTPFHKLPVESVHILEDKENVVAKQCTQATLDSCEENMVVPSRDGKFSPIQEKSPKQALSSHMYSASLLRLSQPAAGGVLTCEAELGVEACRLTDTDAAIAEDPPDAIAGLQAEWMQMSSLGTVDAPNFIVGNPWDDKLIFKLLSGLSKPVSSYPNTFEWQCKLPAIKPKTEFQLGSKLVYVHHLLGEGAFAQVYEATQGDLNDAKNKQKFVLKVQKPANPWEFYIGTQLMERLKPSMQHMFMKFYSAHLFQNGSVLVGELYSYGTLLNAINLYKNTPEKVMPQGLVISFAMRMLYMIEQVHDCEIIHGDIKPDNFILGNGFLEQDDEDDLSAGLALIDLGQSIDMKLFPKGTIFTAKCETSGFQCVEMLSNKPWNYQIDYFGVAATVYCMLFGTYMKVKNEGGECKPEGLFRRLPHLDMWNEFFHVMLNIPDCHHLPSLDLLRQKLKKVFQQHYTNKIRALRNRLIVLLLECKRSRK
T1 sequence (O43684 whole entry partner): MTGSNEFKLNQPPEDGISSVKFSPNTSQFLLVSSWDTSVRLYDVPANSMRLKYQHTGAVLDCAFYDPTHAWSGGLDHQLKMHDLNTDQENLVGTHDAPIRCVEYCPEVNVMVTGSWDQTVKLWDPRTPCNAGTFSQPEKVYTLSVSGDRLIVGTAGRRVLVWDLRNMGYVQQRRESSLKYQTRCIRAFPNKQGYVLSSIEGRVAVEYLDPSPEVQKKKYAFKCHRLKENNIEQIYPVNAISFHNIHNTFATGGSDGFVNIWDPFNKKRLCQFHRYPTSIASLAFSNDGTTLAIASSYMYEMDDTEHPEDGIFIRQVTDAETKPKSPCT

Structure (SMILES)	relative huBUB1 autophosphorylation (5 μM compound)	relative huBUB1 autophosphorylation (10 μM compound)	relative huBUB1 autophosphorylation (20 μM compound)	inhibition of huBUB1 kinase (result in words)
Nc1ncnc2c1c(I)cn2[C@@H]1O[C@H](CO)[C@@H](O)[C@H]1O [iodotubercidin]	0.56 +/− 0.08	0.41 +/− 0.09	0.32 +/− 0.05	clearly inhibited
CN[C@@H]1C[C@H]2O[C@@](C)([C@@H]1OC)n1c3ccccc3c3c4c(c5c6ccccc6n2c5c31)C(=O)NC4 [staurosporine]	0.45 +/− 0.11	0.49 +/− 0.11	0.26 +/− 0.04	clearly inhibited
Cc1cc(O)c2c(=O)c3c(O)cc(O)c4c5c(O)cc(O)c6c(=O)c7c(O)cc(C)c8c1c2c(c34)c(c78)c65 [hypericin]	0.63 +/− 0.07	0.47 +/− 0.13	0.36 +/− 0.05	
